Assay results as given in US20160242416A1, “FUNGICIDAL ISOXAZOLINE CARBINOLS” (E I DU PONT DE NEMOURS AND COMPANY, priority 2015, published 2016).

How the values were obtained:
[1] = tested on: Erysiphe graminis f sp. tritici; assay: Test G: wheat powdery mildew, preventive spray on wheat seedlings; details: 10 ppm; wheat powdery mildew; 100 = 100% disease control, 0 = no control
Stagonospora nodorum = assay: Test D: wheat glume blotch, preventive spray on wheat seedlings; details: 10 ppm; wheat glume blotch; 100 = 100% disease control, 0 = no control
[2] = tested on: Puccinia recondita f sp. tritici; assay: Test F: wheat leaf rust, preventive spray on wheat seedlings; details: 10 ppm; wheat leaf rust; 100 = 100% disease control, 0 = no control
Text: (§1) General protocol for preparing test solutions for Tests A-G: the test compounds were first dissolved in acetone in an amount equal to 3% of the final volume and then suspended at the desired concentration (in ppm) in acetone and purified water (50/50 mix by volume) containing 250 ppm of the surfactant PEG400 (polyhydric alcohol esters). The resulting test suspensions were then used in Tests A-G. Compounds were sprayed at a concentration of 50 ppm (*) or 10 ppm to the point of run-off on the test plants, the equivalent of a rate of 200 g/ha or 40 g/ha, respectively.
The test solution was sprayed to the point of run-off on wheat seedlings. The following day the seedlings were inoculated with a spore suspension of Puccinia recondita f sp. tritici; (the causal agent of wheat leaf rust) and incubated in a saturated atmosphere at 20° C. for 24 h, and then moved to a growth chamber at 20° C. for 6 days, after which time visual disease ratings were made.
A dash (-) indicates no test results. Compounds with an asterisks (*) were applied at a concentration of 50 ppm, otherwise test solutions were applied at 10 ppm.

Botrytis cinerea = assay: Test B: gray mold, preventive spray on tomato seedlings; details: 10 ppm; gray mold on tomato; 100 = 100% disease control, 0 = no control
Zymoseptoria tritici = assay: Test E: wheat leaf blotch, preventive spray on wheat seedlings; details: 10 ppm; wheat leaf blotch; 100 = 100% disease control, 0 = no control
Text: as §1
The test solution was sprayed to the point of run-off on wheat seedlings. The following day the seedlings were inoculated with a spore suspension of Zymoseptoria tritici (the causal agent of wheat leaf blotch) and incubated in a saturated atmosphere at 24° C. for 48 h, and then moved to a growth chamber at 20° C. for 17 days, after which time visual disease ratings were made.
Compounds with an asterisks (*) were applied at a concentration of 50 ppm, otherwise test solutions were applied at 10 ppm.

| SMILES | Test G rating (% disease control) [1] | Test D rating (% disease control) (Stagonospora nodorum) | Test F rating (% disease control) [2] | Test B rating (% disease control) (Botrytis cinerea) | Test E rating (% disease control) (Zymoseptoria tritici) |
| --- | --- | --- | --- | --- | --- |
| OC(Cn1cncn1)(C1=NOC(Cc2ccc(Cl)cc2)C1)c1ccc(Cl)cc1 (single isomer, unassigned) [Compound 199] | 100% | 86% | 100% | 0% | 0% |
| OC(Cn1cncn1)(C1=NOC(COc2ccc(Cl)cn2)C1)c1ccc(Cl)cc1 (single isomer, unassigned) [Compound 164] | 100% | 95% | 100% | 0% | 96% |
| C[S+]([O-])c1ccc(C2CC(C(O)(Cn3cncn3)c3ccc(Cl)cc3)=NO2)cc1 (single isomer, unassigned) [Compound 112] | 69% | 0% | 65% | 0% | 80% |
| OC(Cn1cncn1)(C1=NOC(c2ccc(Cl)cc2)C1)c1ccccc1Cl (single isomer, unassigned) [Compound 150] | 99% | 100% | 100% | 0% | 42% |
| CC(C)(C)CC1CC(C(O)(Cn2cncn2)C(C)(C)C)=NO1 (single isomer, unassigned) [Compound 78] | 0% | 0% | 0% | 0% | 0% |
| CC(C)(C)C(O)(Cn1cncn1)C1=NOC(COc2ccc(C(F)(F)F)cc2)C1 (single isomer, unassigned) [Compound 88] | 99% | 99% | 100% | 0% | 76% |
| CC(C)(C)C(O)(Cn1cncn1)C1=NOC(COc2ccc(I)cc2)C1 (single isomer, unassigned) [Compound 185] | 99% | 100% | 100% | 0% | 0% |
| OC(Cn1cncn1)(C1=NOC(COc2ccc(Cl)nc2)C1)c1ccc(Cl)cc1 (single isomer, unassigned) [Compound 101] | 99% | 0% | 100% | 0% | 0% |
| CC(C)(C)C(O)(Cn1cncn1)C1=NOC(Cc2ccc(Br)cc2)C1 (single isomer, unassigned) [Compound 53] | 99% | 99% | 100% | 70% | 20% |
| OC(Cn1cncn1)(C1=NOC(c2ccc(Cl)cc2)C1)c1ccc(Br)cc1 (single isomer, unassigned) [Compound 181] | 69% | 0% | 45% | 0% | 0% |
| CC(C)(C)C(O)(Cn1cncn1)C1=NOC(CO[Si](C)(C)C(C)(C)C)C1 (single isomer, unassigned) [Compound 10] | 13% | 0% | 19% | 0% | 0% |
| OC(Cn1cncn1)(C1=NOC(c2ccc(Cl)cc2)C1)c1ccc(F)cc1 (single isomer, unassigned) [Compound 161] | 94% | 0% | 28% | 0% | 0% |
| CC(C)(C)C(O)(Cn1cncn1)C1=NOC(Cn2ccc(C(F)(F)F)n2)C1 (single isomer, unassigned) [Compound 48] | 99% | 94% | 99% | 0% | 0% |
| CC(C)(C)C(O)(Cn1cncn1)C1=NOC(CO[Si](C)(C)C(C)(C)C)C1 (single isomer, unassigned) [Compound 9] | 64% | 0% | 0% | 0% | 0% |
| CC(C)(C)C(O)(Cn1cncn1)C1=NOC(COc2ncc(Cl)cn2)C1 (single isomer, unassigned) [Compound 100] | 92% | 77% | 79% | 0% | 0% |
| CC(C)(C)CC1CC(C(O)(Cn2cncn2)C(C)(C)C)=NO1 (single isomer, unassigned) [Compound 77] | 13% | 0% | 0% | 0% | 0% |
| CC(C)(C)C(O)(Cn1cncn1)C1=NOC(COc2ccc(F)cc2F)C1 (single isomer, unassigned) [Compound 21] | 99% | 100% | 100% | 9% | 0% |
| CC(C)(C)C(O)(Cn1cncn1)C1=NOC(CCc2ccc(Cl)cc2)C1 (single isomer, unassigned) [Compound 15] | 100% | 100% | 100% | 100% | 19% |
| CC(C)(C)C(O)(Cn1cncn1)C1=NOC(Cn2ccc(C(F)(F)F)n2)C1 (single isomer, unassigned) [Compound 49] | 99% | 82% | 99% | 11% | 0% |
| CC(C)(C)C(O)(Cn1cncn1)C1=NOC(CCc2ccc(Cl)cc2)C1 (single isomer, unassigned) [Compound 16] | 99% | 100% | 100% | 32% | 8% |
| OC(Cn1cncn1)(C1=NOC(c2ccc(Cl)cc2)C1)c1ccccc1Cl (single isomer, unassigned) [Compound 151] | 90% | 0% | 84% | 0% | 76% |
| OC(Cn1cncn1)(C1=NOC(c2ccc(Cl)cc2)C1)c1ccccc1F (single isomer, unassigned) [Compound 135] | 81% | 69% | 98% | 0% | 1% |
| OC(Cn1cncn1)(C1=NOC(c2ccc(C(F)(F)F)cc2)C1)c1ccc(Cl)cc1 (single isomer, unassigned) [Compound 147] | 90% | 73% | 100% | 0% | 17% |
| CC(C)(C)CC(O)(Cn1cncn1)C1=NOC(COc2ccc(Br)cc2)C1 (single isomer, unassigned) [Compound 171] | 94% | 63% | 100% | 0% | 0% |
| OC(Cn1cncn1)(C1=NOC(COc2ccc(F)cc2)C1)c1ccc(Cl)cc1 (single isomer, unassigned) [Compound 162] | 100% | 96% | 100% | 0% | 76% |
| CC(C)(C)CC(O)(Cn1cncn1)C1=NOC(c2ccc(Cl)cc2)C1 (single isomer, unassigned) [Compound 138] | 100% | 100% | 100% | 17% | 0% |
| CC#CC(O)(Cn1cncn1)C1=NOC(c2ccc(Cl)cc2)C1 (stereo not drawn) [Compound 104, α-[5-(4-chlorophenyl)-4,5-dihydro-3-isoxazolyl]-α-1-propyn-1-yl-1H-1,2,4-triazole-1-ethanol] | 93% | 100% | 97% | 0% | 0% |
| OC(Cn1cncn1)(C1=NOC(COc2ccc(Cl)nc2)C1)c1ccc(Cl)cc1 (single isomer, unassigned) [Compound 102] | 69% | 0% | 18% | 0% | 0% |
